Test results taken from paper PMC5225172 (Cancer Chemotherapy and Pharmacology, 2016).
“Also recorded” adds a separate entry of the source.

How the values were obtained:
[1] = tested on: patients with advanced solid tumors and non-Hodgkin's lymphomas; settings: cited from earlier work
[2] = tested on: advanced or refractory solid tumors; assay: Tumor response and disease assessment by RECIST version 1.1; format: in vivo, human
Text: Screening comprised: provision of written, informed consent; demographics; baseline characteristics; concomitant medications; safety assessments (adverse events [defined as any new finding not present in the patient’s medical history, or a worsening of a prior medical history finding], vital signs, laboratory tests, physical examination, 12-lead electrocardiogram, multigated acquisition scan, or echocardiogram); tumor measurements by computed tomography or magnetic resonance imaging; disease assessment as defined by RECIST version 1.1; ophthalmologic examination; chest computed tomography; and ECOG PS assessment. The following assessments were also performed on cycle 1, day 1: safety; ECOG PS assessment; concomitant medications; blood samples for PK analysis; serum samples for glucose analysis; serum insulin; urinalysis; serum ketones; and post-dose echocardiogram. Safety assessments, blood pressure measurements, blood sampling for PK analysis, and urinalysis were also performed on days 8 and 15 of cycle 1.
Additional PK samples were collected at either 72, 96, or 120 h following the start of infusion. PK samples were also collected on cycle 1, day 15 at 0, 0.5, 1, 1.5, 2, 3, 5, 8, 11, and 25 h following the start of infusion and on cycle 3, day 15 at 0, 0.5, 1, 1.5, 2, 3, 5, and 8 h following the start of infusion. Blood pressure monitoring was performed every 5 min before dosing on cycle 1, day 1 until the observation of two consecutive measurements <150 mmHg (systolic) and <90 mmHg (diastolic). […] Serum samples for glucose analysis were collected immediately before the first infusion and in parallel with PK sampling through to 49 h post-dose. Glucose samples taken at 25 h post-dose were to be fasting, where possible and if deemed safe. Capillary blood glucose testing was to be performed for hyperglycemia management as determined appropriate by the investigator; hyperglycemia was defined as capillary blood glucose >200 mg/dL and was to be treated with short-acting insulin. Tumor measurement and disease assessment according to RECIST version 1.1 were conducted every two cycles by the investigator.

**Q.** What does the source list for COc1c(OCCCN2CCOCC2)ccc2c1N=C(NC(=O)c1cnc(N)nc1)N1CCN=C21 [copanlisib, Copanlisib]?
**A.** Grade 3 hypertension ([1]; Patnaik et al. study): 19%; Incidence of all-grade hypertension ([1]; Patnaik et al. study): 30%; Maximum tolerated dose (MTD) ([1]; first-in-human Phase I study, non-Japanese patients, once weekly): 0.8 mg/kg; Patients with grade ≥3 elevated aminotransferase levels ([1]; first-in-human study): < 10%; Time of hyperglycemia peak after the start of infusion ([1]; first-in-human study): 5 to 8 h; Time of hypertension peak after the start of infusion ([1]; first-in-human study): 1 to 2 h; Best overall response: Complete response ([2]; Cohort 1, 0.4 mg/kg (n = 3)): 0 n (%); Best overall response: Partial response ([2]; Cohort 1, 0.4 mg/kg (n = 3)): 0 n (%); Best overall response: Progressive disease (by proven measurement) ([2]; Cohort 1, 0.4 mg/kg (n = 3)): 2 (66.7) n (%); Best overall response: Stable disease ([2]; Cohort 1, 0.4 mg/kg (n = 3)): 1 (33.3) n (%); Overall disease control rate (complete response + partial response + stable disease) ([2]; Cohort 1, 0.4 mg/kg (n = 3)): 1 (33.3) n (%); Overall response rate (complete response + partial response) ([2]; Cohort 1, 0.4 mg/kg (n = 3)): 0 n (%); Best overall response: Complete response ([2]; Cohort 2, 0.8 mg/kg (n = 7)): 0 n (%); Best overall response: Partial response ([2]; Cohort 2, 0.8 mg/kg (n = 7)): 0 n (%); Best overall response: Progressive disease (by proven measurement) ([2]; Cohort 2, 0.8 mg/kg (n = 7)): 4 (57.1) n (%); Best overall response: Stable disease ([2]; Cohort 2, 0.8 mg/kg (n = 7)): 3 (42.9) n (%); Overall disease control rate (complete response + partial response + stable disease) ([2]; Cohort 2, 0.8 mg/kg (n = 7)): 3 (42.9) n (%); Overall response rate (complete response + partial response) ([2]; Cohort 2, 0.8 mg/kg (n = 7)): 0 n (%); Best overall response: Complete response ([2]; Total (n = 10)): 0 n (%); Best overall response: Partial response ([2]; Total (n = 10)): 0 n (%); Best overall response: Progressive disease (by proven measurement) ([2]; Total (n = 10)): 6 (60.0) n (%); Best overall response: Stable disease ([2]; Total (n = 10)): 4 (40.0) n (%); Overall disease control rate (complete response + partial response + stable disease) ([2]; Total (n = 10)): 4 (40.0) n (%); Overall response rate (complete response + partial response) ([2]; Total (n = 10)): 0 n (%); Disease control rate ([2]; cohort 1, 0.4 mg/kg): 33.3%; Median time to progression ([2]; cohort 1, 0.4 mg/kg, 95% CI 50–77): 52 days; Time to progression, single patient ([2]; cohort 1, stable disease as best response): 77 days; Disease control rate ([2]; cohort 2, 0.8 mg/kg): 42.9%; Median time to progression ([2]; cohort 2, 0.8 mg/kg, 95% CI 21–not estimated): 53 days; Time to progression, single patient (censored) ([2]; cohort 2, gastrointestinal stromal tumor, stable disease, discontinued for thrombocytopenia): 176 days; Time to progression, single patient ([2]; cohort 2, stable disease as best response): 82 days; Time to progression, single patient (censored) ([2]; cohort 2, stable disease, discontinued because of grade 3 diarrhea): 50 days; Rate of progression-free survival ([2]; overall, after 1 month): 0.80 (95% CI 0.41–0.95); Rate of progression-free survival ([2]; overall, after 2 months): 0.35 (95% CI 0.08–0.64); Rate of progression-free survival ([2]; overall, after 3 months): 0.12 (95% CI 0.01–0.40); Median time to progression ([2]; overall, 95% CI 21–82): 52 days; Complete or partial response ([2]; ten patients): No patients achieved a complete or partial response; also recorded: none experienced a complete or partial response; Disease control rate ([2]; ten patients): 40%; Progressive disease as best response ([2]; ten patients): 60.0%; Stable disease as best response ([2]; ten patients): 40.0%
